# US10239832B2, “N-(1-hydroxy-3-(pyrrolidinyl)propan-2-yl)pyrrolidine-3-carboxamide derivatives as glucosylceramide synthase inhibitors” (BIOMARIN PHARMACEUTICAL INC., priority 2013, dated 2019)
# Target: T1, GCS (Canis lupus familiaris, UniProt A0A8I3MXG6)
# T1 construct: endogenous in cells; host or cells: MDCK (Madin-Darby canine kidney) cells, whole-cell lysate
# T1 sequence (A0A8I3MXG6 1-394): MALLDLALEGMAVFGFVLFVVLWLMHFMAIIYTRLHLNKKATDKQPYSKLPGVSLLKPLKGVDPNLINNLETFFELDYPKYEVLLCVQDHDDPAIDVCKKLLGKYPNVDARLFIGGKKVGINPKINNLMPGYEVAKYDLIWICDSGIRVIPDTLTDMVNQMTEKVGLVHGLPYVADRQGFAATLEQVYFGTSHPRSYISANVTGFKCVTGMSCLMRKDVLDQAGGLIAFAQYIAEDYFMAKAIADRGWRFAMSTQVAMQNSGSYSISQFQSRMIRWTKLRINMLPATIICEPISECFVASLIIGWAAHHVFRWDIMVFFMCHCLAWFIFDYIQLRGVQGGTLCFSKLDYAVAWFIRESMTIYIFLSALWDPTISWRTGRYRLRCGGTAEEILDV
# Experiment: GCS enzymatic assay (MDCK cell lysate, NBD-ceramide to glucosylceramide, LC/MS)
# Format: biochemical, canine
# Conditions: Table 2; class symbols A, B, C; the table does not say which of the assays; read-out: Data Range (IC50 values)
# Experimental: This assay was modified based on the study by Larsen et al. (J. Lipid Res. 2011, 53, 282). Madin-Darby canine kidney (MDCK) cell lysate was prepared using M-PER Mammalian Protein Extraction Reagent (Thermal Scientific) in the presence of a protease inhibitor cocktail (Roche). Protein concentration was determined using BCA assay kit (Pierce). […] 0.1% DMSO was used as mock treatment or control. The reaction was terminated by adding 100 μL acetonitrile solution and subjected to LC/MS analysis.
# The quantitative analysis of NBD-Ceramide and glucosylceramide was performed on a Shimadzu ultra-fast liquid chromatography (Shimadzu, Japan) coupled with API 4000 triple quadrupole mass spectrometer (Applied Biosystems, Concord, Ontario, Canada). Sample separation was conducted on a Waters Xbridge™ BEH130 C18, 100 mm×4.6 mm i.d, 3.5 μm (Milford, Mass., USA). The mobile phase consisted of water and acetonitrile supplemented with 0.1% formic acid (v/v). The flow rate was 1.0 mL/min. The initial mobile phase was 20% acetonitrile and was ramped in a linear fashion to 50% acetonitrile in 0.4 min. From 0.4 to 1.5 min, the gradient was ramped to 98% acetonitrile, and then was held at […] until 8.0 min. Acetonitrile was reset to 20% in 1.5 min, and maintained until 10.0 min. The total run time was 10.0 min. The MS/MS detection was performed in ESI positive mode. The mass transition of NBD-Ceramide was m/z 576.36→558.40 under the collision energy of 15 V, and the mass transition of glucosylceramide was m/z 738.35→558.40 under 21V collision energy. The cell lysate was diluted with equal volume of acetonitrile. Aliquots of 50 μL diluted samples were added to 1.5 mL tubes, and 100 μL of acetonitrile containing internal standard (100 ng/mL tolbutamide) were added for protein precipitation. The mixture were vortexed and then centrifuged at 13000 rpm for 10 min. 70 μL of supernatant were mixed with 140 μL of H2O and the final solution were injected for LC/MS/MS analysis and IC50's and/or percent inhibitions calculated.
row,IC50 [nM],Compound
1,30 to 100,"O=C(N[C@H](CN1CCCC1)[C@H](O)c1ccc(OC2CC2)nc1)[C@@H]1CCN(c2ccc(Cl)cc2)C1 [Compound 13, (R)-1-(4-chlorophenyl)-N-((1R,2R)-1-(6-cyclopropoxypyridin-3-yl)-1-hydroxy-3-(pyrrolidin-1-yl)propan-2-yl)pyrrolidine-3-carboxamide]"
2,1 to 30,"O=C(N[C@H](CN1CCCC1)[C@H](O)c1ccc2c(c1)OCCO2)C1CCN(c2ccc3cc(F)ccc3c2)C1 (stereo partly drawn) [Compound 14C, N-((1R,2R)-1-(2,3-dihydrobenzo[b][1,4]dioxin-6-yl)-1-hydroxy-3-(pyrrolidin-1-yl)propan-2-yl)-1-(6-fluoronaphthalen-2-yl)pyrrolidine-3-carboxamide]"

# Same assay, conditions: Table 2; class symbols D, E, F, NA (not active); the table does not say which of the assays
row,Compound,Data Range (% inhibition)
1,"O=C(N[C@H](CN1CCCC1)[C@H](O)c1ccc(OC2CC2)c(Cl)c1)C1CCN(c2ccc(C(F)(F)F)cc2)C1 (stereo partly drawn) [Compound 6, N-((1R,2R)-1-(3-chloro-4-cyclopropoxyphenyl)-1-hydroxy-3-(pyrrolidin-1-yl)propan-2-yl)-1-(4-(trifluoromethyl)phenyl)pyrrolidine-3-carboxamide]",F (1-49% (or less than 50%))
2,"O=C(N[C@H](CN1CCCC1)[C@H](O)c1ccc2c(c1)OCCO2)[C@@H]1CCN(C2CCOCC2)C1 [Compound 9, (R)-N-((1R,2R)-1-(2,3-dihydrobenzo[b][1,4]dioxin-6-yl)-1-hydroxy-3-(pyrrolidin-1-yl)propan-2-yl)-1-(tetrahydro-2H-pyran-4-yl)pyrrolidine-3-carboxamide]",NA (not active—a negative value was generated for % inhibition)
3,"O=C(N[C@H](CN1CCCC1)[C@H](O)c1ccc2c(c1)OCCO2)[C@H]1CCN(C2CCOCC2)C1 [Compound 9E, (S)-N-((1R,2R)-1-(2,3-dihydrobenzo[b][1,4]dioxin-6-yl)-1-hydroxy-3-(pyrrolidin-1-yl)propan-2-yl)-1-(tetrahydro-2H-pyran-4-yl)pyrrolidine-3-carboxamide]",NA (not active—a negative value was generated for % inhibition)
4,"O=C(N[C@H](CN1CCCC1)[C@H](O)c1ccc(OC2CC2)c(Cl)c1)C1CCN(c2ccc(OC(F)(F)F)cc2)C1 (stereo partly drawn) [Compound 10, N-((1R,2R)-1-(3-chloro-4-cyclopropoxyphenyl)-1-hydroxy-3-(pyrrolidin-1-yl)propan-2-yl)-1-(4-(trifluoromethoxy)phenyl)pyrrolidine-3-carboxamide]",D (75-100%)
5,"O=C(N[C@H](CN1CCCC1)[C@H](O)c1ccc2c(c1)OCCO2)C1CCN(C2CCCC2)C1 (stereo partly drawn) [Compound 11, 1-cyclopentyl-N-((1R,2R)-1-(2,3-dihydrobenzo[b][1,4]dioxin-6-yl)-1-hydroxy-3-(pyrrolidin-1-yl)propan-2-yl)pyrrolidine-3-carboxamide]",NA (not active—a negative value was generated for % inhibition)
6,"O=C(N[C@H](CN1CCCC1)[C@H](O)c1ccc2c(c1)OCCO2)[C@@H]1CCN(Cc2ccc(Cl)cc2)C1 [Compound 15, (R)-1-(4-chlorobenzyl)-N-((1R,2R)-1-(2,3-dihydrobenzo[b][1,4]dioxin-6-yl)-1-hydroxy-3-(pyrrolidin-1-yl)propan-2-yl)pyrrolidine-3-carboxamide]",F (1-49% (or less than 50%))
7,"O=C(N[C@H](CN1CCCC1)[C@H](O)c1ccc2c(c1)OCCO2)[C@@H]1CCN(c2nccs2)C1 [Compound 17, (R)-N-((1R,2R)-1-(2,3-dihydrobenzo[b][1,4]dioxin-6-yl)-1-hydroxy-3-(pyrrolidin-1-yl)propan-2-yl)-1-(thiazol-2-yl)pyrrolidine-3-carboxamide]",E (50-74% (or less than 75%))
8,"O=C(N[C@H](CN1CCCC1)[C@H](O)c1ccc2c(c1)OCCO2)[C@H]1CCN(c2nccs2)C1 [Compound 17D, (S)-N-((1R,2R)-1-(2,3-dihydrobenzo[b][1,4]dioxin-6-yl)-1-hydroxy-3-(pyrrolidin-1-yl)propan-2-yl)-1-(thiazol-2-yl)pyrrolidine-3-carboxamide]",NA (not active—a negative value was generated for % inhibition)
9,O=C(N[C@H](CN1CCCC1)[C@H](O)c1ccc2c(c1)OCCO2)C1CCN(c2ccc(Cl)c(OC3CC3)c2)C1 (stereo partly drawn) [Compound 19],E (50-74% (or less than 75%))
10,"O=C(N[C@H](CN1CCCC1)[C@H](O)c1ccc2c(c1)OCCO2)[C@@H]1CCN(c2ccc(OC3CC3)c(Cl)c2)C1 [Compound 20, (R)-1-(3-chloro-4-cyclopropoxyphenyl)-N-((1R,2R)-1-(2,3-dihydrobenzo[b][1,4]dioxin-6-yl)-1-hydroxy-3-(pyrrolidin-1-yl)propan-2-yl)pyrrolidine-3-carboxamide]",F (1-49% (or less than 50%))
11,"O=C(N[C@H](CN1CCCC1)[C@H](O)c1ccc2c(c1)OCCO2)[C@@H]1CCN(CCc2ccc(Cl)cc2)C1 [Compound 21, (R)-1-(4-chlorophenethyl)-N-((1R,2R)-1-(2,3-dihydrobenzo[b][1,4]dioxin-6-yl)-1-hydroxy-3-(pyrrolidin-1-yl)propan-2-yl)pyrrolidine-3-carboxamide]",F (1-49% (or less than 50%))

# Continued, values first:
row,Data Range (% inhibition),Compound
1,F (1-49% (or less than 50%)),"O=C(N[C@H](CN1CCCC1)[C@H](O)c1ccc2c(c1)OCCO2)[C@H]1CCN(CC2(O)CCOCC2)C1 [Compound 5E, (S)-N-((1R,2R)-1-(2,3-dihydrobenzo[b][1,4]dioxin-6-yl)-1-hydroxy-3-(pyrrolidin-1-yl)propan-2-yl)-1-((4-hydroxytetrahydro-2H-pyran-4-yl)methyl)pyrrolidine-3-carboxamide]"
2,F (1-49% (or less than 50%)),"O=C(N[C@H](CN1CCCC1)[C@H](O)c1ccc2c(c1)OCCO2)C1CCN(C2CCOCC2)C1 (stereo partly drawn) [Compound 9D, N-((1R,2R)-1-(2,3-dihydrobenzo[b][1,4]dioxin-6-yl)-1-hydroxy-3-(pyrrolidin-1-yl)propan-2-yl)-1-(tetrahydro-2H-pyran-4-yl)pyrrolidine-3-carboxamide]"
3,F (1-49% (or less than 50%)),"O=C(N[C@H](CN1CCCC1)[C@H](O)c1ccc(OC2CC2)nc1)[C@H]1CCN(c2ccc(Cl)cc2)C1 [Compound 13C, (S)-1-(4-chlorophenyl)-N-((1R,2R)-1-(6-cyclopropoxypyridin-3-yl)-1-hydroxy-3-(pyrrolidin-1-yl)propan-2-yl)pyrrolidine-3-carboxamide]"
4,F (1-49% (or less than 50%)),O=C(N[C@H](CN1CCCC1)[C@H](O)c1ccc2c(c1)OCCO2)C1CCN(Cc2ccc(Cl)cc2)C1 (stereo partly drawn) [Compound 15C]
5,F (1-49% (or less than 50%)),"O=C(N[C@H](CN1CCCC1)[C@H](O)c1ccc2c(c1)OCCO2)[C@H]1CCN(Cc2ccc(Cl)cc2)C1 [Compound 15D, (S)-1-(4-chlorobenzyl)-N-((1R,2R)-1-(2,3-dihydrobenzo[b][1,4]dioxin-6-yl)-1-hydroxy-3-(pyrrolidin-1-yl)propan-2-yl)pyrrolidine-3-carboxamide]"
6,E (50-74% (or less than 75%)),O=C(N[C@H](CN1CCCC1)[C@H](O)c1ccc2c(c1)OCCO2)C1CCN(c2ccc(OC3CC3)c(Cl)c2)C1 (stereo partly drawn) [Compound 20D]
7,F (1-49% (or less than 50%)),"O=C(N[C@H](CN1CCCC1)[C@H](O)c1ccc2c(c1)OCCO2)[C@H]1CCN(c2ccc(OC3CC3)c(Cl)c2)C1 [Compound 20E, (S)-1-(3-chloro-4-cyclopropoxyphenyl)-N-((1R,2R)-1-(2,3-dihydrobenzo[b][1,4]dioxin-6-yl)-1-hydroxy-3-(pyrrolidin-1-yl)propan-2-yl)pyrrolidine-3-carboxamide]"
8,F (1-49% (or less than 50%)),"O=C(N[C@H](CN1CCCC1)[C@H](O)c1ccc2c(c1)OCCO2)C1CCN(CCc2ccc(Cl)cc2)C1 (stereo partly drawn) [Compound 21E, 1-(4-chlorophenethyl)-N-((1R,2R)-1-(2,3-dihydrobenzo[b][1,4]dioxin-6-yl)-1-hydroxy-3-(pyrrolidin-1-yl)propan-2-yl)pyrrolidine-3-carboxamide]"
